Assay results as given in patent US12729377B2, “RNAi agents and compositions for inhibiting expression of angiopoietin-like 3 (ANGPTL3), and methods of use” (Arrowhead Pharmaceuticals, Inc., priority 2017, dated 2026).
In the oligonucleotide strings, read from the 5' end, every base follows the letter of its sugar. An asterisk marks phosphorothioate; unmarked linkages are phosphodiester. Other units and linkages are bracketed, terminal groups are in braces. A string of capitals states the bases alone. {NAG37} = tridentate N-acetyl-galactosamine targeting ligand, structure (NAG37)s; [invAb] = inverted abasic unit; m = 2'-O-methyl; f = 2'-fluoro

Tests used:
ANGPTL3 gene [1] = experiment: Example 6: serum LDL in mice; type: in vivo, C57bl/6 mice
Procedure: (§1) To assess the in vivo activity of additional ANGPTL3 RNAi agents that are designed to target position 304 on the ANGPTL3 gene, six- to eight-week-old female C57bl/6 mice were used. Pre-dose serum samples were taken at day −1 after a four hour fast. At day 1, each mouse was given a single subcutaneous administration of 200 μl containing 0.5 mg/kg (mpk) of an ANGPTL3 RNAi agent in D5W (dextrose in 5% water), or control (D5W) with no RNAi agent, according to the dosing groups recited in Table 25.
Each of the RNAi agents included a modified sequence and an N-acetyl-galactosamine-containing targeting ligand conjugated to the 5′ terminal end of the sense strand. (See Tables 3, 4, and 5 for modified sequences and targeting ligand structures). The injections were performed between the skin and muscle (i.e. subcutaneous injections) into the loose skin over the neck and shoulder area. Three (3) mice in each group were tested (n=3). Serum was collected on days 8, 15, 22, 30, and on day 43 for certain groups (i.e., Groups 1, 2, 5, and 10 only). Mice were fasted for four hours prior to each collection. ANGPTL3 protein levels in serum were measured by ELISA assay (R&D Systems), according to the manufacturer's recommendations. Triglycerides, total cholesterol, high-density lipoprotein (HDL), and low-density lipoprotein (LDL) in serum were measured on a Cobas® Integra 400 (Roche Diagnostics), according to the manufacturer's recommendations.
The ANGPTL3 protein levels, triglyceride levels, total cholesterol levels, HDL levels, and LDL levels for each animal were normalized. For normalization, the level of ANGPTL3 protein, triglyceride, HDL, and total cholesterol, respectively, for each animal at a time point, was divided by the pre-treatment level of expression in that animal (in this case at day −1) to determine the ratio of expression “normalized to pre-treatment.” Expression at a specific time point was then normalized to the D5W control group by dividing the “normalized to pre-treatment” ratio for an individual animal by the mean “normalized to pretreatment” ratio of all mice in the D5W control group.

ANGPTL3 gene [2] = experiment: Example 13: serum total cholesterol in HFCS diet-fed Rhesus monkeys; type: in vivo; conditions: for Avg Chol (Cholesterol) Normalized to Pre-Treatment (Fasted): 4.0 mg/kg sc on day 1 and day 29
Procedure: ANGPTL3 RNAi agent AD05488 was further evaluated in high-fructose corn syrup (HFCS) diet-fed Rhesus monkeys. Rhesus monkeys were placed on an HFCS diet 37 days prior to dosing. These animals were known to develop increased plasma triglycerides greater than 180 mg/dL on the HFCS diet. On day 1 and again on day 29, four (4) Rhesus monkeys were administered a subcutaneous injection containing 4.0 mg/kg of ANGPTL3 RNAi agent AD05488 formulated in saline (n=4). Two additional Rhesus monkeys were administered normal saline control.
Fasted blood samples were drawn for analysis, and serum samples were analyzed on days-8 (predose), 8, 15, 21, 29, and 36. ANGPTL3 expression levels, triglycerides, total cholesterol, high-density lipoprotein (HDL), and low-density lipoprotein (LDL) in serum were measured on a Cobas® Integra 400 (Roche Diagnostics), according to the manufacturer's recommendations.
The ANGPTL3 protein levels, triglyceride levels, total cholesterol levels, HDL levels, and LDL levels for each animal were normalized. For normalization, the level of ANGPTL3 protein, triglyceride, HDL, and total cholesterol, respectively, for each animal at a time point, was divided by the pre-treatment level of expression in that animal (in this case at day −8) to determine the ratio of expression “normalized to pre-treatment.”

ANGPTL3 gene [3] = experiment: Example 9: serum HDL in cynomolgus monkeys; type: in vivo, cynomolgus macaque (Macaca fascicularis); conditions: 2.0 mg/kg single SC injection day 1, cynos, n=3
Procedure: Additional ANGPTL3 RNAi agents were evaluated in cynomolgus monkeys. On day 1, cynomolgus macaque (Macaca fascicularis) primates (also referred to herein as “cynos”) were administered a single subcutaneous injection of 0.3 mL/kg (approximately 2-3 mL volume, depending on animal mass) containing 2.0 mg/kg of an ANGPTL3 RNAi agent, which included either AD05488, AD05743, AD05775, or AD05841, each formulated in saline. […] ANGPTL3 RNAi agents AD05488, AD05743, and AD05775 included nucleotide sequences designed to target position 304 of the ANGPTL3 gene. ANGPTL3 RNAi agent AD05841 included nucleotide sequences designed to target position 1035 of the ANGPTL3 gene.
Three (3) cynos in each group were tested (n=3). Blood samples were drawn and serum samples were analyzed on days −14 (predose), −7 (predose), 1 (pre-dose), 8, 15, 22, 29, and 35. Cynos were fasted overnight prior to each collection. ANGPTL3 protein levels in serum were measured by ELISA assay (R&D Systems), according to the manufacturer's recommendations. Triglycerides, total cholesterol, high-density lipoprotein (HDL), and low-density lipoprotein (LDL) in serum were measured on a Cobas® Integra 400 (Roche Diagnostics), according to the manufacturer's recommendations.
The ANGPTL3 protein levels, triglyceride levels, total cholesterol levels, HDL levels, and LDL levels for each animal were normalized. For normalization, the level of ANGPTL3 protein, triglyceride, HDL, and total cholesterol, respectively, for each animal at a time point, was divided by the average pre-treatment level of expression in that animal (in this case at days −14, −7, and 1) to determine the ratio of expression “normalized to pre-treatment.”

ANGPTL3 mRNA = experiment: Example 11: liver ANGPTL3 mRNA by RT-qPCR in mice; type: in vivo, C57bl/6 mice
Procedure: as §1, with “dose response” for “in vivo activity”, “of” for “of additional”, “agent AD05488,” for “agents that are designed to target position 304 on the ANGPTL3 gene,”, “the respective” for “0.5”, “dose” for “(mpk)”, “53:” for “25.”
Additionally, ANGPTL3 mRNA levels were also assessed. All of the mice from each respective group were sacrificed on day 29 after serum collection, livers were harvested, and approximately 100 mg liver samples were collected and snap-frozen in liquid nitrogen for RNA isolation.

AD05488: RNAi agent duplex: antisense AM07235-AS, sense AM07234-SS (antisense mU*fA*mC*fUmGfAmUfCmAfAmAfUmAfUmGfUmUfGmAfG*mC; sense {NAG37}*[invAb]*mGmCmUmCmAmAmCmAfUfAfUmUmUmGmAmUmCmAmGmUmA*[invAb])
Avg LDL, normalized to pre-treatment and control (ANGPTL3 gene [1]; Day 8, 0.5 mg/kg single SC injection on day 1, n=3): 0.805 | Avg LDL, normalized to pre-treatment and control (ANGPTL3 gene [1]; Day 15, 0.5 mg/kg single SC injection on day 1, n=3): 0.880 | Avg LDL, normalized to pre-treatment and control (ANGPTL3 gene [1]; Day 22, 0.5 mg/kg single SC injection on day 1, n=3): 0.991 | Avg LDL, normalized to pre-treatment and control (ANGPTL3 gene [1]; Day 30, 0.5 mg/kg single SC injection on day 1, n=3): 1.093 | Avg LDL, normalized to pre-treatment and control (ANGPTL3 gene [1]; Day 43, 0.5 mg/kg single SC injection on day 1, n=3): 0.970 | reductions in total cholesterol levels (ANGPTL3 gene [2]; 4.0 mg/kg on days 1 and 29, HFCS diet-fed Rhesus monkeys): reductions | Avg Chol (Cholesterol) Normalized to Pre-Treatment (Fasted) (ANGPTL3 gene [2]; Day 8): 0.734 | Avg Chol (Cholesterol) Normalized to Pre-Treatment (Fasted) (ANGPTL3 gene [2]; Day 15): 0.641 | Avg Chol (Cholesterol) Normalized to Pre-Treatment (Fasted) (ANGPTL3 gene [2]; Day 21): 0.579 | Avg Chol (Cholesterol) Normalized to Pre-Treatment (Fasted) (ANGPTL3 gene [2]; Day 29): 0.549 | Avg Chol (Cholesterol) Normalized to Pre-Treatment (Fasted) (ANGPTL3 gene [2]; Day 36): 0.459 | Average HDL Normalized to Pre-Treatment (ANGPTL3 gene [3]; Day 8): 0.985 | Average HDL Normalized to Pre-Treatment (ANGPTL3 gene [3]; Day 15): 0.911 | Average HDL Normalized to Pre-Treatment (ANGPTL3 gene [3]; Day 22): 0.849 | Average HDL Normalized to Pre-Treatment (ANGPTL3 gene [3]; Day 29): 0.856 | Average HDL Normalized to Pre-Treatment (ANGPTL3 gene [3]; Day 35): 0.810 | Avg Relative ANGPTL3 mRNA, Normalized to Control (ANGPTL3 mRNA; 0.05 mg/kg single sc day 1, Day 29): 0.798 | Avg Relative ANGPTL3 mRNA, Normalized to Control (ANGPTL3 mRNA; 0.1 mg/kg single sc day 1, Day 29): 0.563 | Avg Relative ANGPTL3 mRNA, Normalized to Control (ANGPTL3 mRNA; 0.5 mg/kg single sc day 1, Day 29): 0.277 | Avg Relative ANGPTL3 mRNA, Normalized to Control (ANGPTL3 mRNA; 1.0 mg/kg single sc day 1, Day 29): 0.123 | Avg Relative ANGPTL3 mRNA, Normalized to Control (ANGPTL3 mRNA; 2.5 mg/kg single sc day 1, Day 29): 0.036 | Avg Relative ANGPTL3 mRNA, Normalized to Control (ANGPTL3 mRNA; 5.0 mg/kg single sc day 1, Day 29): 0.038 | reduction in ANGPTL3 mRNA (ANGPTL3 mRNA; day 29, single subcutaneous dose, C57bl/6 mice): reduction
